Source: patent US8697858B2 (priority 2009, dated 2014)
l = locked nucleic acid (LNA); d = 2'-deoxy (DNA)

Columns and labels:
H1N1 (strain PR8) = assay type: cell-based, murine
M2 protein = assay type: cell-based, H1N1 (strain PR8)

Row | Substance | relative effectiveness of the 2′OMe compounds (viral HA RNA; also observed for M2 protein) (H1N1 (strain PR8)) | effectiveness in the M2 protein expression assay (M2 protein) | reduction in viral HA RNA levels (H1N1 (strain PR8)) | effectiveness in the viral HA RNA assay (H1N1 (strain PR8))
1 | 2′OMe-AUG2: 2′OMe phosphorothioate oligomer, SEQ ID NO: 20 (ACCTCGGTTAGAAGACTCATCTTTC; all 2'-O-methyl, all phosphorothioate, T or U not given here) | most effective | – | – | –
2 | LNA-AUG1: LNA (capitals)/DNA CgGtTaGaAgAcTcAtCtTt (CGGTTAGAAGACTCATCTTT; sugars from the 5' end ldldldldldldldldldld, backbone and methylation of C not given here) | – | most effective | approximately 3 log | –
3 | LNA-AUG10: LNA (capitals)/DNA gAcTcAtCtT (GACTCATCTT; sugars from the 5' end dldldldldl, backbone and methylation of C not given here) | – | least effective | – | least effective
4 | LNA-AUG12: LNA (capitals)/DNA CgGtTaGaAgAcTcAt (CGGTTAGAAGACTCAT; sugars from the 5' end ldldldldldldldld, backbone and methylation of C not given here) | – | – | approximately 1.5 log | –
